Here are results for one compound from US7879547B2, “Method of detecting the presence of asthma or allergies in a patient” (Children's Hospital Medical Center, priority 2002, dated 2011).

Molecules are shown by their SMILES.

The test system of test [1] is lung arginase. Put plainly: Arginase activity in lung lysates incubated with NOHA in vitro (blood urea nitrogen reagent). The class given is biochemical, mice. On the procedure: (§1) FIGS. 11A and 11B are line graphs showing the results of treating lung lysates with N(omega)-hydroxy-L-arginine (NOHA). FIG. 11A illustrates in vitro treatment of lung lysates from […] with NOHA. FIG. 11B illustrates in vitro treatment of transgenic mice that overexpress interleukin 4 with NOHA.
(§2) Arginase activity was measured using the blood urea nitrogen reagent (Sigma Chemical Company, St. Louis, Mo.) according to established techniques as exemplified in Wei, L. H., et al., Proc Natl Acad Sci USA 98, 9260-4. (2001); Li, H. et al. Am J Physiol Regul Integr Comp Physiol 282, R64-R69. (2002); Wei, L. H. et al., Am J Physiol Cell Physiol 279, C248-56. (2000). To measure levels of putrescine following acid extraction, ion-pair reverse phase high performance liquid chromatography was performed.
(§3) IL-4 lung transgenic mice, which have markedly elevated level of lung arginase mRNA and activity, were used to examine the effect of NOHA in vitro and in vivo (FIG. 11). In FIG. 11A, lung lysates from IL-4 lung transgenic mice were incubated with NOHA and the arginase activity at different doses of NOHA (x axis) and arginine is shown. In FIG. 11B, IL-4 transgenic mice were treated with intratracheal NOHA (two doses: 10 and 100 mcg) and the arginase activity in the lungs was measured 4 hrs later.

For test [2], the system named is lung arginase. Put plainly: Lung arginase activity after intratracheal NOHA in IL-4 lung transgenic mice. The class given is in vivo. The conditions noted are these: IL-4 transgenic mice, intratracheal NOHA 10 and 100 mcg, measured 4 hrs later, FIG. 11B. On the procedure:
as §1, §2, §3

The subject of test [3] is IL4/IL5 lung transgenic mice. As to the kind of experiment: Airway hyperresponsiveness to methacholine (Penh, barometric plethysmography) after intratracheal NOHA. The following applies: intratracheal NOHA 100 mcg, Penh recorded 4 hrs later, Example 20, FIG. 12. The format is in vivo. On the procedure: FIG. 12 is a line graph showing the results of airway hyperreactivity measurements (recorded as Penh) in asthmatic mice (IL4/IL5 bitransgenic lung mice) treated with intratracheal NOHA. Airway reactivity to methacholine was assessed in conscious, unrestrained mice by barometric plethysmography, using apparatus and software supplied by Buxco (Troy, N.Y.). This system yields a dimensionless parameter known as enhanced pause (Penh), reflecting changes in wave-form of the pressure signal from the plethysmography chamber combined with a timing comparison of early and late expiration, which can be used to empirically monitor airway function. […]

Test [4] has as its system asthma. Put plainly: Treatment of individual suffering from asthma with anti-arginase compound (inhalation). The class given is in vivo. The conditions noted are these: inhalation of therapeutically effective amount. From the text: An individual suffering from asthma is identified. The individual is provided with a therapeutically effective amount of N(omega)-hydroxy-L-arginine to reduce the indications of asthma.

For the compound `N=C(NO)NCCC[C@H](N)C(=O)O` [NOHA, N(omega)-hydroxy-L-arginine], in test [1] (lung lysates from IL-4 lung transgenic mice incubated with different doses of NOHA and arginine, FIG. 11A), the “arginase activity in lung lysates” value was “effective to reduce arginase activity in lung lysates”. For the same compound, in test [1] (summary statement referring to Example 15), the “arginase activity in the asthmatic lung” value is given as “blocks arginase activity in the asthmatic lung”. Moreover, the “arginase activity in the lungs” value in test [2] is “effective to reduce arginase activity”. In addition, in test [3], the “development of allergen-induced airway hyperresponsiveness (Penh)” value was “blocks the development of allergen-induced airway hyperesponsiveness”. In addition, in test [4], the asthma symptoms entry was “asthma symptoms are reduced”.
